One data set concerns cGKII. The data set can be described thus: cGKII knockdown in C2BBe cells, Western blot. The class given is cell-based, human. Particulars: lentiviral cGKII shRNA.
Data set [1] deals with rat proximal colonic mucosa. Further details: method as in 2 sources, one per row (each row's own in cited_ref): ref Tchernychev et al. 2015 ||| ref Vaandrager et al. 1997. The settings on record: rat proximal colon; ref Vaandrager et al. 1997; cited from earlier work.
Another data set relates to rat colonic mucosa. The settings on record: apical and basolateral membrane, ref Silos‐Santiago et al. 2013, Tchernychev et al. 2015; cited from earlier work. The text has this:
(§1) While the increase in intracellular cGMP following ligand activation of GC‐C is well established, the efflux of cGMP from enterocytes is not well studied.

For the next data set, the system named is Caco‐2 cell line. Particulars: human colonic Caco‐2 cell line; ref Castro et al. 2013; Silos‐Santiago et al. 2013; cited from earlier work.
Excerpt: as §1

The test system of a further data set is mouse colonic mucosa. Particulars: apical and basolateral membrane, ref Silos‐Santiago et al. 2013, Tchernychev et al. 2015; cited from earlier work.
Excerpt: as §1

Another data set concerns T84 cells. The settings on record: ref Forte et al. 1993; cited from earlier work.
Data set [2] concerns CFTR. The data set can be described thus: Surface biotinylation of CFTR in C2BBe cells. The class given is cell-based, human. Particulars: linaclotide 3.27 μmol/L 30 min.
Data set [3] relates to CFTR. Put plainly: Surface biotinylation of CFTR in T84 cells. The class given is cell-based, human. Particulars: linaclotide 3.27 μmol/L 30 min.
The test system of data set [4] is rat proximal colonic mucosa. The data set can be described thus: Transepithelial short circuit current (Isc) across rat proximal colonic mucosa, Ussing chamber. Also on record: species or system rat (Sprague–Dawley).
The subject of data set [5] is CFTR. The data set can be described thus: Surface biotinylation of CFTR in cGKII knockdown C2BBe cells. The class given is cell-based, human. Particulars: dibutyryl cAMP 1 mmol/L, 30 min, vs PBS.
Data set [6] relates to PKGII-deficient mice intestinal tissue. Also on record: method as in Vaandrager et al. 2000. The settings on record: normal and PKGII knockout mice; ref Vaandrager et al. 2000; cited from earlier work.
In another data set the test system is human intestine. Also on record: method as in Kuhn et al. 1994. Particulars: segments of human intestine including ascending colon; ref Kuhn et al. 1994; cited from earlier work.
Another data set relates to human colonic mucosa. Put plainly: Transepithelial short circuit current (Isc) across human ascending colonic mucosa, Ussing chamber. Particulars: human ascending colon, bumetanide 100 μmol/L basolateral, linaclotide 30 nmol/L and 1000 nmol/L; mean ± SEM (n = 6).
Where [7] appears, read: H7 50 μmol/L pretreatment 30 min.
Setting [8] is: H8 70 μmol/L pretreatment 30 min.

Entries after “also recorded” stand apart in the source; their conditions may differ. Where no end group is shown, it is not given here.

Take “cGKII shRNA: cGKII‐targeting shRNA (5′‐GGGCCTTAATAACCATTTAGT‐3′), lentiviral pLKO.1 (expressed from pLKO.1 lentiviral vector)”: the “downregulation of cGKII” value with cGKII is “approximately 50 ± 3%”.

With `Nc1nc2c(nc(Sc3ccc(Cl)cc3)n2[C@@H]2O[C@@H]3CO[P@@](=O)(S)O[C@H]3[C@H]2O)c(=O)[nH]1` [Rp‐8‐pCPT‐cGMPS], the “inhibition of GC‐C‐mediated transepithelial ion current by PKGII antagonists” value in data set [1] was “significant but incomplete inhibition”.

For “uroguanylin (NDDCELCVNVACTGCL; ends and bridges not checked; cysteine pairing not given here; UniProt Q16661 97-112, looked up) [natural hormone, GC‐C agonist]”, the cGMP efflux result in the data set on rat colonic mucosa, in the data set on Caco‐2 cell line and in the data set on mouse colonic mucosa was “induce cGMP efflux” each time. The “cGMP production via GC‐C activation” value with T84 cells is listed as “increase production of cGMP”.

For the molecule `CC1CNCCN1S(=O)(=O)c1cccc2cnccc12` (centres unmarked) [H7], the “effect of PKA inhibitor on linaclotide‐induced apical CFTR traffic” value in the data set on CFTR [2] (setting [7]) and in the data set with CFTR [3] (setting [7]) was “reduced but did not abrogate linaclotide‐induced apical CFTR traffic; also recorded: reduce linaclotide‐induced apical trafficking of CFTR; also recorded: partially abrogated linaclotide‐stimulated traffic” throughout.

As to `CNCCNS(=O)(=O)c1cccc2cnccc12.Cl.Cl` [H8], the “effect of PKG inhibitor on linaclotide‐induced apical CFTR traffic” value in the data set on CFTR [2] (setting [8]) and in the data set on CFTR [3] (setting [8]) was “reduced linaclotide‐induced apical CFTR traffic more potently compared to the PKA inhibitor H7; also recorded: reduce linaclotide‐induced apical trafficking of CFTR” in each case. Moreover, the “effect of PKGII inhibitor on NKH477‐evoked Isc” value in data set [4] (rat proximal colon, H8 100 μmol/L 30 min preincubation, NKH477 20 μmol/L basolateral, mean ± SEM (n = 5)) is listed as “no effect on NKH477‐evoked Isc; also recorded: no effect on PKA‐mediated short circuit current induced by NKH477”. For the same molecule, in data set [4] (rat proximal colon, H8 100 μmol/L 30 min preincubation, linaclotide 100 nmol/L apical, mean ± SEM (n = 5)), the “effect of PKGII inhibitor on linaclotide‐induced Isc” value is reported as “significantly decreased linaclotide‐induced Isc compared to vehicle‐treated tissues; also recorded: significant, it was not complete”. For the same molecule, in [1], the “inhibition of GC‐C‐mediated transepithelial ion current by PKGII antagonists” value was “significant but incomplete inhibition”.

On to `CCCC(=O)Nc1ncnc2c1ncn2[C@@H]1O[C@@H]2COP(=O)(O)O[C@H]2[C@H]1OC(=O)CCC` [Dibutyryl cAMP], for which the “surface CFTR in cGKII‐KD cells after cAMP analog” value is “increased apical surface CFTR” with CFTR [5] and “able to recruit CFTR to the membrane” in the data set with CFTR [5] (listed as dibuturyl cAMP).

Turning to `Nc1cc(-c2ccncc2)c[nH]c1=O` [amrinone], the “transepithelial ion current by PDE3 inhibitor” value in data set [6] is “induced transepithelial ion current in tissues from normal and PKGII knockout mice”.

On to `O=C(CNc1ccc2ccccc2c1)N/N=C/c1cc(Br)c(O)c(Br)c1O` [GlyH‐101], for which the “inhibition of linaclotide‐evoked Isc by CFTR inhibitor” value in data set [4] (GlyH‐101 0.1 mmol/L apical, 20 min after linaclotide 6 nmol/L or 100 nmol/L, mean ± SEM (n = 4)) was “significantly attenuated the linaclotide‐evoked Isc”. In data set [4] (GlyH‐101 0.1 mmol/L, linaclotide 6 nmol/L), the “inhibition of linaclotide‐evoked Isc by CFTR inhibitor, low linaclotide” value is listed as “more profound when tissues were stimulated with lower concentrations of linaclotide; also recorded: significantly inhibited Isc induced by low concentration of linaclotide”. In [4] (GlyH‐101 0.1 mmol/L, linaclotide 100 nmol/L), the “inhibition of linaclotide‐evoked Isc by CFTR inhibitor, high linaclotide” value was “less profound”.

For the molecule “guanylin (PGTCEICAYAACTGC; ends and bridges not checked; cysteine pairing not given here; UniProt Q02747 101-115, looked up) [natural hormone, GC‐C agonist]”, in the data set with human intestine, the “electrogenic Cl− secretion” value is given as “increase electrogenic Cl^− secretion”. In addition, the “cGMP production via GC‐C activation” value in the data set with T84 cells is given as “increase production of cGMP”.

Turning to `C=C[C@@]1(C)CC(=O)[C@]2(O)[C@@]3(C)[C@@H](O)CCC(C)(C)[C@@H]3[C@H](OC(=O)CCN(C)C)[C@H](OC(C)=O)[C@@]2(C)O1.Cl` [NKH477], the “NKH477-induced transepithelial ion current” value in data set [4] (rat proximal colon, NKH477 20 μmol/L basolateral, mean ± SEM (n = 5)) was “robust transepithelial ion current”.

Turning to `CCCCNc1cc(C(=O)O)cc(S(N)(=O)=O)c1Oc1ccccc1` [bumetanide], in the data set on human colonic mucosa, the “effect of NKCC1 inhibitor on linaclotide‐evoked Isc” value was “significantly attenuated linaclotide‐evoked Isc; also recorded: inhibits GC‐C mediated short circuit current across human colonic mucosa”.

These data come from article PMC5471438, “Linaclotide activates guanylate cyclase‐C/cGMP/protein kinase‐II‐dependent trafficking of CFTR in the intestine” (Physiological Reports, 2017).
